Values quoted from earlier work as cited in patent publication US20100035992A1, “Methods and Compositions for Treating Inflammation and Inflammation-Related Pathologies” (priority 2008, published 2010).

Details: at 79° F.

CS(C)(=O)=O [MSM, methylsulfonylmethane]
water solubility: 34 % w/v
